Article PMC10818921, “Validation of Liquid Chromatography Coupled with Tandem Mass Spectrometry for the Determination of 12 Tyrosine Kinase Inhibitors (TKIs) and Their Application to Therapeutic Drug Monitoring in Adult and Pediatric Populations” (Pharmaceutics, 2023)
Like-named read-outs stand apart in the source and are kept apart here.

Assays:
[1] = Therapeutic drug monitoring: steady-state residual plasma concentrations by LC-MS/MS; assay type: in vivo, human; details: for Concentration range CI 95% / IQR / Mean concentration / Median concentration: residual plasma concentration at steady state; for comparison of dose–weight-adjusted concentrations between adult and pediatric groups: Mann–Whitney test, p-value < 0.0001 where significant
Method: For each calibration sample, an adapted volume of working solution was added and evaporated. Then, 150 µL of IS methanolic solution was added to 50 µL of plasma sample (blank plasma for calibration sample or patient plasma) to precipitate proteins. After vortex mixing and 10 min of centrifugation, the supernatant was transferred into injection vials, and 10 µL was injected into the chromatographic system.
Chromatography was performed on a Dionex Ultimate 3000 Pump (ThermoFisher, les Ulis, France) using a Kinetex C18 Polar column (100 × 2.1 mm, 2.6 µm particle size) heated at 40 °C. The mobile phase A was made with 2 mM of ammonium formate in 0.1% formic acid in ultra-pure water and stored at +4 °C for a maximum of one week. […] The gradient was set as follows: 10 to 40% of B from 0 to 1 min, then 40 to 90% of B in 1 min, and keeping this for 2 min before resetting to 10% B in 1 min. An equilibration time of one minute at 10% mobile phase B at the end of the chromatographic run allowed the column to be equilibrated before the next analysis.
The compounds were detected using an Altis® triple quadrupole tandem mass spectrometer (ThermoFisher Scientific, Les Ulis, France) equipped with an electrospray ionization (ESI) source set in positive ionization mode with a potential of +3.5 kV. Nitrogen was used as cladding and auxiliary gas at a pressure of 30 and 10 arbitrary units (AU), respectively. The collision gas, argon, was used at a pressure of 1.5 mTorr. The temperature of the ion transfer capillary was set at 350 °C. Data were collected in multiple reaction monitoring mode (MRM) with two transitions (m/z) per compound. Xcalibur® (v 4.2.47) and LC Quan® (v 2.7.0) software (ThermoFisher Scientific) were used for data acquisition and processing.
The study was conducted in accordance with the Declaration of Helsinki and approved by the local ethics committee.
Populations treated with each TKI are described in Table 4.
Blood samples were collected in a steady state (i.e., a minimum of 2 weeks after the initiation of therapy or dose adjustment) just prior to dosing. The samples were collected in lithium heparin tubes without a separator and were immediately centrifuged, decanted, and frozen at −20 °C before LC-MS/MS analysis.
A Mann–Whitney […] was performed to compare dose–weight-adjusted concentrations between adult and pediatric groups. Results are illustrated in box-and-whiskers plots. GraphPad Prism v.8.3.0 Software (San Diego, CA, USA) was used to process and visualize data.

[2] = cited from earlier work; for Target Concentrations, Cmax / Target Concentrations, Cmin: adults
[3] = cited from earlier work
[4] = Stability of TKI methanolic solutions, 7 days at −20 °C; assay type: physicochemical; details: for bias, stability of TKI methanolic solutions: QCs made with 7-day-old methanolic solutions; for storage of methanolic working solutions: −20 °C for 7 days
Method: To evaluate TKI stability in methanolic solutions, the four QC levels were realized with seven-day-old solutions and were analyzed six times. The accuracy and precision of the samples have to be in conformity with less than 15% variation.

[5] = cited from earlier work; remark: listed apart in the source

SMILES	Dose–weight-adjusted mean concentration ([1]; adults) [ng/mL/mg/kg]	Dose–weight-adjusted median concentration ([1]; adults) [ng/mL/mg/kg]	Concentration range CI 95% ([1]; adults)	IQR ([1]; adults)	Mean concentration ([1]; adults) [ng/mL]	Median concentration ([1]; adults) [ng/mL]	Target Concentrations, Cmax [2]	comparison of dose–weight-adjusted concentrations between adult and pediatric groups [1]	Dose–weight-adjusted mean concentration ([1]; children) [ng/mL/mg/kg]	Dose–weight-adjusted median concentration ([1]; children) [ng/mL/mg/kg]	Concentration range CI 95% ([1]; children)	IQR ([1]; children)	Mean concentration ([1]; children) [ng/mL]	Median concentration ([1]; children) [ng/mL]	bias, stability of TKI methanolic solutions [4] [%]	storage of methanolic working solutions [4]	Target Concentrations, Cmin [2]	further results
COC(=O)N[C@@H](C)CNc1nccc(-c2cn(C(C)C)nc2-c2cc(Cl)cc(NS(C)(=O)=O)c2F)n1 [Encorafenib, encorafenib]	3.4	2.6	[16–21] ng/mL	[10–22] ng/mL	18.6	15	Cmax = 3100 ng/mL											frozen stability in plasma [3]: at least 30 days
Cn1cnc2c(F)c(Nc3ccc(Br)cc3F)c(C(=O)NOCCO)cc21 [Binimetinib, binimetinib]	48.8	41.6	[51–64] ng/mL	[38–69] ng/mL	57.4	52	Cmax = 654 ng/mL	higher concentrations of binimetinib in adults	17.5	14.6	[37–204] ng/mL	[62–143] ng/mL	120	100				frozen stability in plasma [3]: at least 30 days
C=CC(=O)Nc1cc(Nc2nccc(-c3c[nH]c4ccccc34)n2)c(OC)cc1N(C)CCN(C)C [AZ5104]	25.8	21.7	[16–56] ng/mL	[11–47] ng/mL	32	25									≥ 15	must be prepared extemporaneously		
CC(C)(C)c1nc(-c2cccc(NS(=O)(=O)c3c(F)cccc3F)c2F)c(-c2ccnc(N)n2)s1 [Dabrafenib, dabrafenib]	28.3	14	[88–122] ng/mL	[29–114] ng/mL	105.3	53.5		not statistically different	62.3	19.1	[26–178] ng/mL	[15–131] ng/mL	102.3	18.4			Cmin ≥ 15 ng/mL	stable in plasma ([3]; −40 °C): more than 20 weeks; adverse effects described [5]: Skin disorders (acneiform eruptions and rash)
C=CC(=O)Nc1cc(Nc2nccc(-c3cn(C)c4ccccc34)n2)c(OC)cc1N(C)CCN(C)C [Osimertinib, osimertinib]	196.7	211.4	[122–320] ng/mL		221	207									≥ 15	must be prepared extemporaneously		Target Concentrations, Cmin ([2]; 40 mg dosage): ≥ 90 ng/mL; Target Concentrations, Cmin ([2]; 80 mg dosage): ≥ 160 ng/mL; stability in plasma [3]: minimum of one month
O=C(c1ccc(F)c(F)c1Nc1ccc(I)cc1F)N1CC(O)([C@@H]2CCCCN2)C1 [Cobimetinib, cobimetinib]	145.7	138.1	[24–94] ng/mL	[46.5–83] ng/mL	59.3	70	Cmax = 270 ng/mL	not statistically different	85.4	62.6	[74–118] ng/mL	[34–114] ng/mL	96.3	64.3				stable in plasma ([3]; −40 °C): more than 20 weeks
C[C@@H](Oc1cc(-c2cnn(C3CCNCC3)c2)cnc1N)c1c(Cl)ccc(F)c1Cl [Crizotinib, crizotinib]															≥ 15	must be prepared extemporaneously	Cmin ≥ 235 ng/mL	stability at −20 °C for 7 days ([4]; methanolic solutions, CQ3): not stable; stability in plasma [3]: minimum of one month
CC(=O)Nc1cccc(-n2c(=O)n(C3CC3)c(=O)c3c(Nc4ccc(I)cc4F)n(C)c(=O)c(C)c32)c1 [Trametinib, trametinib]	443.8	386.3	[11–13] ng/mL	[8–14] ng/mL	12.4	11		significantly lower in the adult group than in the pediatric group	578.4	538.5	[11–14] ng/mL	[6.5–17] ng/mL	12.6	9.7			Cmin ≥ 10.6 ng/mL	minimum effective concentrations [2]: 10 ng/mL; serum stability ([3]; −20 °C): 20 months; toxicity reported ([5]; children treated for glioma): signs of cutaneous toxicity; adverse effects described [5]: Skin disorders (acneiform eruptions and rash)
CCc1cc2c(cc1N1CCC(N3CCOCC3)CC1)C(C)(C)c1[nH]c3cc(C#N)ccc3c1C2=O [Alectinib, alectinib]	17.3	16.7	[292–424] ng/mL	[302–408] ng/mL	358	346												
C[C@H]1Oc2cc(cnc2N)-c2c(nn(C)c2C#N)CN(C)C(=O)c2ccc(F)cc21 [Lorlatinib, lorlatinib]							Cmax = 575 ng/mL											stable in plasma ([3]; −30 °C): at least 2 months
